Measured values: patent US4629737A, “Secondary amines and use in pharmaceutical compositions” (Beecham Group p.l.c., priority 1982, dated 1986)
Structures can show the parent of a compound that is named as a salt. Where two headings read alike, the source gives them in different places.

Key:
[1] = tested on: platelet aggregation in human whole blood; test: Collagen-induced platelet aggregation in human whole blood in vitro; assay type: cell-based; details: 3 mins pre-incubation
Experimental: Collagen-induced platelet aggregation in human whole blood in vitro.
Collagen added to stirred citrated blood causes platelet aggregation. As the platelets aggregate, the concentration of single platelets falls. […] Inhibitors of aggregation, such as aspirin and dipyridamole, reduce the response to collagen.
Blood drawn from volunteers who denied taking aspirin within the previous seven days was mixed with 0.1 vol 129 mM trisodium citrate, dispensed into 0.5 ml aliquots and kept at 25° C. Collagen (Hormon-Chemie, Munich) or 154 mM NaCl (control) was added to each aliquot of blood stirred at 1100 rpm in an aggregometer at 37° C. after 3 mins pre-incubation with compound or appropriate solvent. Aggregates were fixed by addition of 0.5 vol 4.5% formaldehyde or 0.05 vol phosphate-buffered glutaraldehyde. Single platelets were counted electronically. Responses, expressed as percent fall in platelet count, were obtained to a range of collagen concentrations. The concentration producing 50% maximal effect (EC50) was estimated from log10 concentration-response curves. Dose-ratios were calculated by dividing the EC50 obtained in the presence of compound under test by the control EC50.

[2] = tested on: blood glucose; test: Hypoglycaemic activity: reduction in area under blood glucose curve after glucose load; assay type: in vivo, Female CFLP mice; details: Mus musculus, read-out: % Reduction in area under Blood Glucose Curve
Outline: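 Female CFLP mice (~25 g, 24 h fasted, n=6) dosed orally with aqueous compound; water controls. Glucose 1 g/Kg s.c. given 30 min later, tail blood glucose sampled every 30 min for 120 min. Activity defined as significant (P<0.05) reduction versus controls; 2 h glucose AUC compared with controls.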

[3] = Effect on energy expenditure of mice; assay type: in vivo, Female CFLP mice; details: Mus musculus; for response vs control in vivo at 23 mg/kg / response vs control in vivo at 22.5 mg/kg / response vs control in vivo at 21.4 mg/kg: po; for response vs control in vivo at 23.9 mg/kg: 23.9 mg/kg po
Outline: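 Female CFLP mice (~24 g, fed ad lib; n=12 per group) dosed orally with compound as the hydrochloride (1 mol HCl per mol) in water, vehicle controls receiving water. Energy expenditure over 21 h post-dose calculated from outflow air volume and oxygen content by the Weir method.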

[4] = tested on: right atrium; test: Isolated rat atria screen: rate of spontaneously beating right atrium; parameters: species or system Sprague-Dawley male rats; details: for Emax: maximal effect relative to isoprenaline maximum (=1), read-out: Rate i.a. (intrinsic activity)
Experimental: (§1) Sprague-Dawley male rats (300-400 g) are killed and the right and left atria dissected out independently and mounted on a combined tissue holder/electrode. The tissues are then immersed in a glass bath containing Krebs solution maintained at 32° C. The rate of the spontaneously beating right atrium (via an isometric transducer and a ratemeter) and the tension of the electrically paced left atrium (via an isometric transducer) are recorded on an M19 chart recorder.
(§2) After an initial stabilization period, the tissues are exposed to a maximal concentration of isoprenaline (10^-7 M). The tissues are then washed several times until rate and tension return to baseline level. A dose-response curve to the test compound is then carried out.
(§3) Responses to each concentration of test compound are expressed as a percentage of the maximal responses to isoprenaline. Results are given in the form of (a) intrinsic activity (i.a.) (maximal effect of test compound with respect to isoprenaline maximum, i.e. isoprenaline intrinsic activity=1) and (b) EC50 (the molar concentration at which the test compound produces 50% of its own maximum response).

[5] = tested on: left atrium; test: Isolated rat atria screen: tension of electrically paced left atrium; parameters: species or system Sprague-Dawley male rats; details: for EC50: concentration producing 50% of its own maximum response; for Emax: maximal effect relative to isoprenaline maximum (=1), read-out: Tension i.a. (intrinsic activity)
Experimental: as §1, §2, §3

[6] = tested on: rat ear; test: Topical anti-inflammatory activity, croton oil induced rat ear inflammation; assay type: in vivo; details: 1.00 mg/rat ear; 6 h; shown by significant (5% level) reduction in ear weight vs non-drug treated control
Experimental: The method used is based on that described by G. Tonelli et al (Endocrinology, 77, 625-634, 1965). An inflammation is induced in the rat ear by the application of 50 μl of a 1% solution of croton oil in tetrahydrofuran, test compounds being dissolved in the irritant vehicle. After 6 hours the inflammation is assessed by killing the animals and weighing the ears. Topical anti-inflammatory activity of a compound is generally considered to be shown when a significant (5% level) reduction in ear weight is seen compared to non-drug treated control.

[7] = final concentration in whole blood 200 μM
[8] = 3 h, read-out: Mean Energy Expenditure (0-3 h)
[9] = 21 h, read-out: Mean Energy Expenditure (0-21 h)

OCCN(CCO)c1nc(N2CCCCC2)c2nc(N(CCO)CCO)nc(N3CCCCC3)c2n1 [Dipyridamole, reference compound]
DOSE RATIO (EC50 of collagen with compound / control EC50) [1, 7]: 3.7 ± 1.1

CNC(=O)COc1ccc(CC(C)NCC(OC)c2cccc(C(F)(F)F)c2)cc1 (stereo not drawn) [Example 7, N-[2-(4-Methylaminocarbonylmethoxyphenyl)-1-methylethyl]-2-methoxy-2-(3-trifluoromethylphenyl)ethanamine hydrochloride]
inhibition in vivo at 2.5 µmol/kg ([2]; po, 2 h): 32%
response vs control in vivo at 23 mg/kg [3, 8]: 143%
response vs control in vivo at 23 mg/kg [3, 9]: 123%
EC50 ([4]; concentration producing 50% of its own maximum response): 1500 nM
Emax [4]: 6%
EC50 [5]: 36 µM
Emax [5]: 23%

CCCOC(CNC(C)Cc1ccc(OCCNC)cc1)c1cccc(Cl)c1 (stereo not drawn) [Example 29, N-[2-(4-(2-Methylaminoethoxy)phenyl)-1-methylethyl]-2-^n propoxy-2-(3-chlorophenyl)ethanamine dihydrochloride]
inhibition in vivo at 25 µmol/kg ([2]; 25 μmol/Kg oral, 2 h after glucose 1 g/Kg s.c., vs control): 43%
response vs control in vivo at 23.9 mg/kg ([3]; 0-3 h, read-out: Mean Energy Expenditure (0-3 h)): 144%
response vs control in vivo at 23.9 mg/kg ([3]; 0-21 h, read-out: Mean Energy Expenditure (0-21 h)): 118%
Topical anti-inflammatory ACTIVITY [6]: Active
DOSE RATIO (EC50 of collagen with compound / control EC50) ([1]; final concentration in whole blood 100 μM): 10.8

CNCCOc1ccc(CC(C)NCC(OC)c2cccc(Cl)c2)cc1 (stereo not drawn) [Example 6, N-[2-(4-(2-Methylaminoethoxy)phenyl)-1-methylethyl]-2-methoxy-2-(3-chlorophenyl)ethanamine dihydrochloride]
inhibition in vivo at 12.5 µmol/kg ([2]; po, 2 h): 55%
response vs control in vivo at 22.5 mg/kg [3, 8]: 154%
response vs control in vivo at 22.5 mg/kg [3, 9]: 126%
Emax [4]: 0%
Emax [5]: 0%

COC(=O)COc1ccc(CC(C)NCC(OC)c2cccc(Cl)c2)cc1.Cl (stereo not drawn) [Example 1, N-[2-(4-Carbomethoxymethoxyphenyl)-1-methylethyl]-2-methoxy-2-(3-chlorophenyl)ethanamine hydrochloride]
inhibition in vivo at 0.25 µmol/kg ([2]; po, 2 h): 47%
response vs control in vivo at 21.4 mg/kg [3, 8]: 151%
response vs control in vivo at 21.4 mg/kg [3, 9]: 138%
Emax [4]: 0%
EC50 [5]: 30 µM
Emax [5]: 30%
Topical anti-inflammatory ACTIVITY [6]: Active
DOSE RATIO (EC50 of collagen with compound / control EC50) ([1]; final concentration in whole blood 300 μM): 6.9

CC(=O)Oc1ccccc1C(=O)O [Aspirin, reference compound]
DOSE RATIO (EC50 of collagen with compound / control EC50) [1, 7]: 2.0 ± 0.1
